Measured values from ChEMBL document CHEMBL3431459, “Roche carnitine palmitoyltransferase modulator screening data (supplementary data associated with the publication CHEMBL2216752)”.

Tests used:
[1] = molecular target: T1, Carnitine O-palmitoyltransferase 1, muscle isoform (Homo sapiens, UniProt Q92523); test: SUPPLEMENTARY: Inhibition of Carnitine palmitoyltransferase 1, muscle isoform; set-up: species or system Muscle tissue
T1 sequence (Q92523 whole entry): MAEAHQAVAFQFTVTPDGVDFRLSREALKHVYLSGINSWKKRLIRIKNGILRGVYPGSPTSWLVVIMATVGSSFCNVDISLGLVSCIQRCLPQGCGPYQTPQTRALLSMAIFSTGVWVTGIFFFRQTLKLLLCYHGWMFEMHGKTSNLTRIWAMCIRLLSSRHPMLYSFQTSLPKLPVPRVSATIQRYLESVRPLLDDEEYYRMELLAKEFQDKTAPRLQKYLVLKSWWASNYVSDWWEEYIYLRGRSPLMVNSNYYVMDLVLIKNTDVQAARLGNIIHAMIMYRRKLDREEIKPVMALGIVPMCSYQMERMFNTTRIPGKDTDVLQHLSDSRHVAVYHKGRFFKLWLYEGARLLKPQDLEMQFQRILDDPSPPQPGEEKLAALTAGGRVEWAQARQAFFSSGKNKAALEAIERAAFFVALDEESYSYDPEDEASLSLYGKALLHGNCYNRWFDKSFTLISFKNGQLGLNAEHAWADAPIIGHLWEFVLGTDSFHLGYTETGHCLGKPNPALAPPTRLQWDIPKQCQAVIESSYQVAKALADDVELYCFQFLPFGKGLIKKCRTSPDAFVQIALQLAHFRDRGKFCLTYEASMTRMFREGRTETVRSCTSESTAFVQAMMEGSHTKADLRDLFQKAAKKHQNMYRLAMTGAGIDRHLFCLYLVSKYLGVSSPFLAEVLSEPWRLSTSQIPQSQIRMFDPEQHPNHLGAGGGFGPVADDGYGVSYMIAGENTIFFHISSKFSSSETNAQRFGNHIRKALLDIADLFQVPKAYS

[2] = molecular target: T2, Carnitine O-palmitoyltransferase 2, mitochondrial (Homo sapiens, UniProt P23786); test: (§1) SUPPLEMENTARY: Inhibition of Carnitine palmitoyltransferase 2
T2 sequence (P23786 whole entry): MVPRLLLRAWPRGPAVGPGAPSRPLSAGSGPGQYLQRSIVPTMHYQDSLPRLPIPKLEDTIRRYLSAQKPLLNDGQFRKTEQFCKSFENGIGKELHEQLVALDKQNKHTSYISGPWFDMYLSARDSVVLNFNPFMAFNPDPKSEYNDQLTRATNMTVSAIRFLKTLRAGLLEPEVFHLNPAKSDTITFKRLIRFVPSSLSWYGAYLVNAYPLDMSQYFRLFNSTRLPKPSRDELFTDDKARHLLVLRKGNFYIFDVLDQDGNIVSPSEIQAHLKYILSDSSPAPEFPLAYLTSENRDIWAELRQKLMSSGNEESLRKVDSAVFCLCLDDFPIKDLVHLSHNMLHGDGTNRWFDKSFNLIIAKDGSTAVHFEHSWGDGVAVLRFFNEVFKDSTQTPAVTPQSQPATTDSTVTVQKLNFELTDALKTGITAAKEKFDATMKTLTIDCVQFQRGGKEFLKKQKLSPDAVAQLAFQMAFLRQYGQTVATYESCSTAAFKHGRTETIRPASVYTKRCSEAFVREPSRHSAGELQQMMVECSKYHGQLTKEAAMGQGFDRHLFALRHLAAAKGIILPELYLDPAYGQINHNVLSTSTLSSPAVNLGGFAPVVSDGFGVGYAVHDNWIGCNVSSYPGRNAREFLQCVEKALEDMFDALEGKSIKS

[3] = molecular target: T3, Carnitine O-palmitoyltransferase 2, mitochondrial (Rattus norvegicus, UniProt P18886); test: as §1
T3 sequence (P18886 whole entry): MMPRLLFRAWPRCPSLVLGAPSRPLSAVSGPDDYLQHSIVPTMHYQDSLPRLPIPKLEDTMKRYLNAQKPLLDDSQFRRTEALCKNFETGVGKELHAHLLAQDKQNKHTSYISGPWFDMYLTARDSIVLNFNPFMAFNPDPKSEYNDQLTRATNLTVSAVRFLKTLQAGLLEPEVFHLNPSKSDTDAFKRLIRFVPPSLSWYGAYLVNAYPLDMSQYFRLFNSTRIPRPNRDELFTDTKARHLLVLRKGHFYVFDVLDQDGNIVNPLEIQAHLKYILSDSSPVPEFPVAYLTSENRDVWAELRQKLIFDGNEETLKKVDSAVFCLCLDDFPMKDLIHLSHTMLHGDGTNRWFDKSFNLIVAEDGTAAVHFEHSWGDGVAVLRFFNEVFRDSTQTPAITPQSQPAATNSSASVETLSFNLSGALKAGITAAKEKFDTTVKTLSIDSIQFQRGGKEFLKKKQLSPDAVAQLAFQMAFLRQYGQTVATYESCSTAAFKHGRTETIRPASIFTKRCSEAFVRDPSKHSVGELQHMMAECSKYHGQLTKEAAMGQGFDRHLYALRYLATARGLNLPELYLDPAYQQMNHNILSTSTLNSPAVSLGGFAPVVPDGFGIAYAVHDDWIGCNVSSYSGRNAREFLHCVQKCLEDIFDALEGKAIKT

[4] = molecular target: T4, Carnitine O-palmitoyltransferase 1, liver isoform (Homo sapiens, UniProt P50416); test: (§2) SUPPLEMENTARY: Inhibition of Carnitine palmitoyltransferase 1, liver isoform
T4 sequence (P50416 whole entry): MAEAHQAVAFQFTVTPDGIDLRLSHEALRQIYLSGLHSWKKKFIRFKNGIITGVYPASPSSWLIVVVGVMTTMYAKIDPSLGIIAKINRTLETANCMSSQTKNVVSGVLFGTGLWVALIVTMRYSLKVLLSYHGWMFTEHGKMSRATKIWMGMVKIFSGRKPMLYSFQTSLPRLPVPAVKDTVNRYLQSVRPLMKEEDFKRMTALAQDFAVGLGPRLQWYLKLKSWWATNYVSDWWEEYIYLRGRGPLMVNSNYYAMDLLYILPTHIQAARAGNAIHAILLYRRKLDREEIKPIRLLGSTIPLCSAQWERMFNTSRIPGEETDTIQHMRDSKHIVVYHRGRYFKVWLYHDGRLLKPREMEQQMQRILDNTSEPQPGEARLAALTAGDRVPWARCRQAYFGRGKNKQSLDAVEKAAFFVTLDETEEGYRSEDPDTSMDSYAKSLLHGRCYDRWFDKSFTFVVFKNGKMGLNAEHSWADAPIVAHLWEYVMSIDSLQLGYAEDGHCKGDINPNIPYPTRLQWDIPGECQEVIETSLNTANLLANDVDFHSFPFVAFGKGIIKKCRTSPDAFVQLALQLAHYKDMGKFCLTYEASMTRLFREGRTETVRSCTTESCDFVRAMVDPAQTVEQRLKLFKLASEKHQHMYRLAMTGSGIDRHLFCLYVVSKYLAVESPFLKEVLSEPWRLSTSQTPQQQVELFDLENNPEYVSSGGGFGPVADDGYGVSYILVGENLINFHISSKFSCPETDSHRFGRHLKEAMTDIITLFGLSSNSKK

[5] = molecular target: T5, Carnitine O-palmitoyltransferase 1, liver isoform (Rattus norvegicus, UniProt P32198); test: as §2
T5 sequence (P32198 whole entry): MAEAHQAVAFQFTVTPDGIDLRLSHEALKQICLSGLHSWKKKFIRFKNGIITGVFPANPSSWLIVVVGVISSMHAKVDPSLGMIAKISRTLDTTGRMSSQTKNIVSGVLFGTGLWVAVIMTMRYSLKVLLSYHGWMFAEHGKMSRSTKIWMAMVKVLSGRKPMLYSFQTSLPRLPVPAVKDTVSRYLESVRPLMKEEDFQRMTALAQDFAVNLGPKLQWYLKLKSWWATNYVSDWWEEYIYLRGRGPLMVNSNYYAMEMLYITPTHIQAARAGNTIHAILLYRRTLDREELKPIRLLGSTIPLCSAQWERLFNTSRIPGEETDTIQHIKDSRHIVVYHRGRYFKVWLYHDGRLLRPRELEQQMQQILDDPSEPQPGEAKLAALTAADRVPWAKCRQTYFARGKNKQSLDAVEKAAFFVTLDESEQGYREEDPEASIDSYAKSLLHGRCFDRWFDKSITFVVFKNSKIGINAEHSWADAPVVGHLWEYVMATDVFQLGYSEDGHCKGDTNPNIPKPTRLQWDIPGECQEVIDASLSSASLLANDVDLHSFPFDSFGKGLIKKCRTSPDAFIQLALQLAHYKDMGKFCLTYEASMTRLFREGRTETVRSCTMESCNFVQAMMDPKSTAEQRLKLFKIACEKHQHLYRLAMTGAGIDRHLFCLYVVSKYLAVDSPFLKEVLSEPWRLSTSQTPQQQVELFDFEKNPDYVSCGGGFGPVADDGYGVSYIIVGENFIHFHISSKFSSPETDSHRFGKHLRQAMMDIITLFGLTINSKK

| SMILES | IC50 [1] | IC50 [2] | IC50 [3] | IC50 [4] | IC50 [5] |
| --- | --- | --- | --- | --- | --- |
| COc1ccc(Cl)cc1[S+]([O-])c1c[nH]c2ccc(C(=O)Nc3ccccc3)cc12 (centres undefined) | > 100000 nM | > 100000 nM | > 100000 nM | > 10000 nM | > 10000 nM |
| COc1ccc(Cl)cc1S(=O)(=O)N(c1cc(C(=O)Nc2ccn(CC(=O)O)n2)cc2c1OCO2)C(C)C | 5280 nM | > 100000 nM | > 100000 nM | 1070 nM | 6020 nM |
| COCCN(c1cc(C(=O)Nc2ccn(CC(=O)O)n2)cc2c1OCO2)S(=O)(=O)c1cc(Cl)ccc1OC | 5320 nM | > 100000 nM | > 100000 nM | 337 nM | 792 nM |
| O=C1Nc2ccc(-c3n[nH]c([C@H]4CCCCN4C(=O)COc4ccccc4)n3)cc2CO1 | 70700 nM | 26400 nM | 50400 nM | 223 nM | 840 nM |
| COc1ccc(Cl)cc1S(=O)(=O)N1C[C@H](C(=O)O)Oc2ccc(C(=O)Nc3ccccc3)cc21 | 31900 nM | > 100000 nM | > 100000 nM | 46.6 nM | 15.3 nM |
| CCN(c1cc(C(=O)Nc2ccc(CC(=O)O)cc2)cc2c1OCO2)S(=O)(=O)c1cc(Cl)ccc1OC | 2800 nM | 37700 nM | > 100000 nM | 285 nM | 350 nM |
| COc1ccc(Cl)cc1S(=O)(=O)c1n[nH]c2ccc(C(=O)Nc3ccccc3)cc12 | > 100000 nM | > 100000 nM | > 100000 nM | 172 nM | 102 nM |
| O=C(NCc1ccc(-c2nnn[nH]2)cc1)c1nn(Cc2ccc(OC(F)F)cc2)c2ccc(F)cc12 | 8510 nM | > 100000 nM | > 100000 nM | 221 nM | 394 nM |
| COc1ccc(Cl)cc1S(=O)(=O)N(c1cc(C(=O)Nc2ccc(CC(=O)O)cc2)cc2c1OCO2)C(C)C | 598 nM | 52200 nM | > 100000 nM | 890 nM | 1090 nM |
| O=C(COc1ccccc1)NS(=O)(=O)Cc1ccc(-c2nc([C@H]3CCCCN3C(=O)COc3ccccc3)cs2)cc1 | 2290 nM | 2380 nM | 6580 nM | 214 nM | 361 nM |
| COCCN(c1cc(C(=O)Nc2ncc(CC(=O)O)s2)cc2c1OCO2)S(=O)(=O)c1cc(Cl)ccc1OC | 914 nM | > 100000 nM | > 100000 nM | 315 nM | 157 nM |
| COc1ccc(Cl)cc1S(=O)(=O)N(C)c1cc(C(=O)Nc2ccc(CC(=O)O)cc2)cc2c1OCO2 | 857 nM | > 100000 nM | > 100000 nM | 391 nM | 362 nM |
| COc1ccc(C)cc1S(=O)(=O)N1CCOc2ccc(C(=O)Nc3ccc(C(=O)O)c(F)c3)cc21 | 2150 nM | 2580 nM | 15400 nM | 224 nM | 102 nM |
| COc1ccc(Cl)cc1S(=O)(=O)N(CCC(=O)O)c1cc(C(=O)Nc2ccccc2)cc2c1OCO2 | 2810 nM | > 100000 nM | > 100000 nM | 175 nM | 1720 nM |
| O=C(COc1ccccc1)N1CCCC[C@@H]1c1nnn(-c2ccc(F)cc2)n1 | > 100000 nM | > 100000 nM | > 100000 nM | 197 nM | 256 nM |
| O=C(COc1ccccc1)N1CCCC[C@@H]1C#Cc1ccc2[nH]cnc2c1 | 7310 nM | > 100000 nM | > 100000 nM | 130 nM | 72.2 nM |
| O=C([C@H]1CCCCN1C(=O)COc1ccccc1)N1CCc2c(Cl)cccc2C1 | > 100000 nM | 634 nM | 1610 nM | 224 nM | 367 nM |
| O=C(COc1ccccc1)N1CCNCC1c1nc(-c2ccc(N3CCOCC3)cc2)no1 (centres undefined) | > 100000 nM | > 100000 nM | > 100000 nM | 88.7 nM | 489 nM |
| COc1ccc(Cl)cc1S(=O)(=O)c1c2cc(C(=O)Nc3ccccc3)ccc2nn1C | > 100000 nM | > 100000 nM | > 100000 nM | 162 nM | 381 nM |
| O=C([C@H]1CCCCN1C(=O)COc1ccccc1)N1CCN(c2ncccn2)CC1 | > 100000 nM | 1560 nM | 2610 nM | 167 nM | 322 nM |
| Nc1ccc(-c2n[nH]c([C@H]3CCCCN3C(=O)COc3ccccc3)n2)cn1 | – | 80000 nM | 90700 nM | 325 nM | 759 nM |
